This test has as its system Balb/c mice. Description: Bronchodilatory effect of inhaled quaternary ammonium salts; methacholine-induced bronchoconstriction (Penh, whole body plethysmography). In kind it is in vivo. As to conditions: for inhibition of the bronchoconstriction to methacholine: female BALB/c mice, 5 min inhalation of 1.29 mg/ml aerosol, 80 mg/ml methacholine. As to the method:
Female BALB/c mice, weight range 19-22 g, were obtained from Charles River Laboratories (Kingston, N.C.). They received food and water ad libitum. All procedures in these studies were in compliance with the Animal Welfare Act Regulation, 9CFP. Parts 1 and 2, Publication (NIH) 85-23, 1985.
Compounds for aerosol administration were prepared in sterile Dulbecco's Phosphate Buffered Saline. Mice were placed in a carousel-style, nose only, exposure chamber and allowed to inhale aerosols for five minutes, using an ICN SPAG-2 nebulizer. This nebulizer generates a mean aerosol particle size of 1.3 microns at a rate of approximately 0.25 ml/minute.
Ten minutes and 36 hours later, the mice were moved to whole body plethysmograph chambers. Bronchoconstriction was induced in mice by administration of an 80 mg/ml methacholine (MC) aerosol into the plethysmograph chambers for 5 minutes. The mice were allowed to inhale an aerosol containing 80 mg/ml methacholine following inhalation treatment with DPBS vehicle (Dulbecco's Phosphate Buffered Saline), or 80 mg/ml methacholine following inhalation treatment with 1.29 mg/ml of (3S)-3-(2-amino-2-oxo-1,1-diphenylethyl)-1-[2-(2,3-dihydro-1-benzofuran-5-yl)ethyl]-1-methylpyrrolidinium iodide. The average enhanced pause (Penh, lung resistance), corresponding to airflow resistance, was determined and statistically analyzed using Kruskal-Wallis one way ANOVA. In order to determine the baseline, saline aerosol (without methacholine) was also separately administered to the mice.

Consider `C[N+]1(CCc2ccc3c(c2)CCO3)CC[C@@H](C(C(N)=O)(c2ccccc2)c2ccccc2)C1.[I-]` (stereo partly drawn) [Example I, (3S)-3-(2-amino-2-oxo-1,1-diphenylethyl)-1-[2-(2,3-dihydro-1-benzofuran-5-yl)ethyl]-1-methylpyrrolidinium iodide], for which the “inhibition of the bronchoconstriction to methacholine” value was 100% (measured 10 minutes after dosing (FIG. 1)) and 61% (measured 36 hours after dosing (FIG. 2)). In addition, the “efficacy (lung resistance) compared to tertiary amine form” value (varying concentrations, quaternary compound vs its tertiary amine form (FIGS. 3A-3C)) is recorded as “extended activity”.
